PubChem BioAssay AID2060506 (Molecular Pharmacology Branch, DTP, NCI, 2025)
Values joined by “and” are separate entries in the source; they are usually repeats but may differ in a detail not shown here. Equal values may be shown once.

Test system: 598228-144-R-J1-PDC complex spheroid viability
Experiment: Anticancer human tumor 598228-144-R-J1-PDC patient-derived serous endometrial adenocarcinoma cell line growth inhibition [GQUAD]
Conditions: for viability, T/C: stronger effect = lower value
Description: DNA G-quadruplex Stabilizer Agents in Combinations in Complex Spheroids
A high-throughput screen of multi-cell type tumor spheroids was designed to identify active combinations of DNA G-quadruplex stabilizer agents and targeted small molecules. Complex spheroids include a stromal component modeled by human endothelial cells (HUVEC) and fibroblasts modeled by human mesenchymal stem cells (MSCs). The concentration ranges selected for each drug and investigational agent were based upon clinically achievable concentrations if the clinical Cmax of the agent was known.
Compounds. The drugs and investigational agents: pidnarulex (CX-5461; NSC782164), APTO-253 (NSC789042), BRACO-19 (NSC847499), peposertib (NSC802822), ceralasertib (NSC780249), elimusertib (NSC800525), camonsertib (NSC841442), AZD-1390 (NSC803789), olaparib (NSC753686), talazoparib (NSC767125), ART-558 (NSC835418), sotorasib (NSC818433), MRTX-1133 (NSC836407), SN-38 (NSC673596), topotecan (NSC609699), etoposide (NSC141540), doxorubicin (NSC123127), gemcitabine (NSC613327), 5-fluorouracil (NSC19893), paclitaxel (NSC125973), vemurafenib (NSC761431), panobinostat (NSC761190), R-306465 (JNJ-16241199; NSC773264), adavosertib (NSC754352), TP-3654 (NSC805149), carboplatin (NSC241240), KSQ-4279 (NSC840948), and staurosporine (NSC755774) were obtained from the National Cancer Institute (NCI) Developmental Therapeutics Program Chemical Repository (34). The FDA-approved anticancer drug set is available from the NCI Developmental Therapeutics Program. […] The stock solutions were prepared in dimethyl sulfoxide (DMSO, Sigma-Aldrich, St. Louis, MO, cat. D2650) at 800-fold the tested concentration and stored at -70 degrees C prior to their use. All drugs and investigational agents were tested over a range starting from a high concentration at or near the clinical Cmax and decreasing in half-log increments. If the clinical Cmax for an agent had not been determined, the highest concentration tested was 10 microM.
2.3 Cell Culture. All cells were maintained in an incubator at 37 degrees C and 5% CO2 with 95% humidity. The PDC lines were cultured according to standard operating procedures established by the NCI PDMR. All PDCs were thawed and cultured in Matrigel-coated flasks prepared with a working solution of 1X Ham's F-12 nutrient mix, without supplementation (Invitrogen, cat. 11765054), 100 U/mL penicillin-streptomycin (Invitrogen, cat. 15140122), and 2.5% Matrigel (Corning Inc., cat. 354248) for the first three passages. The 857933-349-R-J2-PDC line was cultured in 6C/Colon 1B media, which includes advanced DMEM/F-12 (Thermo Fisher Scientific, cat. 12634028), 10 mM HEPES (Thermo Fisher Scientific, cat. 15630080), 1X GlutaMAX supplement (Thermo Fisher Scientific, cat. 35050061), 0.1 mg/mL primocin (InvivoGen, cat. ant-pm-2), 10% defined fetal bovine serum, heat inactivated (HyClone Laboratories Inc., cat. SH30070.03HI), 50% L-WRN conditioned media (ATCC, cat. CRL-3276), 1.25 mM N-Acetyl-L-cysteine (Sigma-Aldrich, cat. A9165), 10 mM nicotinamide (Sigma-Aldrich, cat. N0636), 1X B-27 supplement (Thermo Fisher Scientific, cat. 17504044), 1X N-2 supplement (Thermo Fisher Scientific, cat. 17502048), 10 microM Y-27632 dihydrochloride (Tocris Bioscience, cat. 1254), and 50 ng/mL human EGF recombinant protein (Thermo Fisher Scientific, cat. PHG0311). The 485176-168-R4-J1-PDC line was cultured in Panc media, which includes all 6C/Colon 1B media components plus 100 ng/mL human FGF-10 (Thermo Fisher Scientific, cat. 100-26), 500 nM SB-431542 (Selleckchem, cat. S1067), and gastrin (Tocris, cat. 3006).
[…]

[1] = curve of first compound, second compound 0.0316 µM
[2] = curve of first compound, second compound 0.1 µM
[3] = curve of first compound, second compound 0.316 µM
[4] = curve of first compound, second compound 1 µM
[5] = curve of first compound, second compound 3.16 µM
[6] = curve of first compound, second compound 10 µM
[7] = second compound 0.0316 µM, first compound 0.0316 µM
[8] = second compound 0.0316 µM, first compound 0.1 µM
[9] = second compound 0.0316 µM, first compound 0.316 µM
[10] = second compound 0.0316 µM, first compound 1 µM
[11] = second compound 0.0316 µM, first compound 3.16 µM
[12] = second compound 0.0316 µM, first compound 10 µM
[13] = second compound 0.1 µM, first compound 0.0316 µM
[14] = second compound 0.1 µM, first compound 0.1 µM
[15] = second compound 0.1 µM, first compound 0.316 µM
[16] = second compound 0.1 µM, first compound 1 µM
[17] = second compound 0.1 µM, first compound 3.16 µM
[18] = second compound 0.1 µM, first compound 10 µM
[19] = second compound 0.316 µM, first compound 0.0316 µM
[20] = second compound 0.316 µM, first compound 0.1 µM
[21] = second compound 0.316 µM, first compound 0.316 µM
[22] = second compound 0.316 µM, first compound 1 µM
[23] = second compound 0.316 µM, first compound 3.16 µM
[24] = second compound 0.316 µM, first compound 10 µM
[25] = second compound 1 µM, first compound 0.0316 µM
[26] = second compound 1 µM, first compound 0.1 µM
[27] = second compound 1 µM, first compound 0.316 µM
[28] = second compound 1 µM, first compound 1 µM
[29] = second compound 1 µM, first compound 3.16 µM
[30] = second compound 1 µM, first compound 10 µM
[31] = second compound 3.16 µM, first compound 0.0316 µM
[32] = second compound 3.16 µM, first compound 0.1 µM
[33] = second compound 3.16 µM, first compound 0.316 µM
[34] = second compound 3.16 µM, first compound 1 µM
[35] = second compound 3.16 µM, first compound 3.16 µM
[36] = second compound 3.16 µM, first compound 10 µM
[37] = second compound 10 µM, first compound 0.0316 µM
[38] = second compound 10 µM, first compound 0.1 µM
[39] = second compound 10 µM, first compound 0.316 µM
[40] = second compound 10 µM, first compound 1 µM
[41] = second compound 10 µM, first compound 3.16 µM
[42] = second compound 10 µM, first compound 10 µM
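Further: spheroids exposed to the agents for one week before reading.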
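Wherever viability, T/C is given: percent of vehicle DMSO control viability so 100% = untreated growth.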

COc1cccc2c1C(=O)c1c(O)c3c(c(O)c1C2=O)CC(O)(C(=O)CO)CC3OC1CC(N)C(O)C(C)O1 (stereo not drawn)
viability, T/C (compound 0.0316 µM): 93.1% and 76% and 90.5% | viability, T/C (compound 0.1 µM): 76.3% and 67.8% and 76.2% | viability, T/C (compound 0.316 µM): 78.5% and 73.6% and 72.8% | viability, T/C (compound 1 µM): 41.3% and 36.2% and 49.6% | viability, T/C (compound 3.16 µM): 1.91% and 2.01% and 1.77% | viability, T/C (compound 10 µM): 0.43% and 0.5% and 0.55% | IC50 (curve of compound): 0.755 µM and 0.646 µM and 0.915 µM

CC(C)n1c(=O)n(C)c2cnc3cc(F)c(-c4ccc(OCCCN5CCCCC5)nc4)cc3c21
viability, T/C (compound 0.0316 µM): 109% and 90.8% and 106% | viability, T/C (compound 0.1 µM): 91.9% and 85.2% and 84.2% | viability, T/C (compound 0.316 µM): 101% and 92.4% and 109% | viability, T/C (compound 1 µM): 115% and 111% and 96.7% | viability, T/C (compound 3.16 µM): 94.2% and 74.5% and 67.8% | viability, T/C (compound 10 µM): 60.8% and 56.7% and 68.5% | IC50 (curve of compound): > 10 µM

O=c1[nH]cc(F)c(=O)[nH]1 + Cc1cnc(CNC(=O)c2c(=O)c3ccc(N4CCCN(C)CC4)nc3n3c2sc2ccccc23)cn1
IC50 [1]: > 10 µM | IC50 [2]: > 10 µM | IC50 [3]: > 10 µM | IC50 [4]: > 10 µM | IC50 [5]: > 10 µM | IC50 [6]: < 0.0316 µM | viability, T/C [7]: 101% | viability, T/C [8]: 98.9% | viability, T/C [9]: 85.3% | viability, T/C [10]: 85.7% | viability, T/C [11]: 89% | viability, T/C [12]: 76% | viability, T/C [13]: 69.2% | viability, T/C [14]: 80.3% | viability, T/C [15]: 69.9% | viability, T/C [16]: 65.1% | viability, T/C [17]: 97.9% | viability, T/C [18]: 64.1% | viability, T/C [19]: 69.7% | viability, T/C [20]: 77.8% | viability, T/C [21]: 72.4% | viability, T/C [22]: 66.3% | viability, T/C [23]: 65.1% | viability, T/C [24]: 55.5% | viability, T/C [25]: 61.2% | viability, T/C [26]: 54.3% | viability, T/C [27]: 63.5% | viability, T/C [28]: 68.4% | viability, T/C [29]: 73.8% | viability, T/C [30]: 60.3% | viability, T/C [31]: 56.1% | viability, T/C [32]: 59.2% | viability, T/C [33]: 56% | viability, T/C [34]: 46.1% | viability, T/C [35]: 67.9% | viability, T/C [36]: 52.2% | viability, T/C [37]: 44.5% | viability, T/C [38]: 49.6% | viability, T/C [39]: 48.3% | viability, T/C [40]: 53.1% | viability, T/C [41]: 59.8% | viability, T/C [42]: 51.9%

O=C(c1cc(Cc2n[nH]c(=O)c3ccccc23)ccc1F)N1CCN(C(=O)C2CC2)CC1 + Cc1[nH]c2ccc(F)cc2c1-c1nc2c3cccnc3c3ncccc3c2[nH]1
IC50 [1]: > 10 µM | IC50 [2]: > 10 µM | IC50 [3]: > 10 µM | IC50 [4]: > 10 µM | IC50 [5]: < 0.0316 µM | IC50 [6]: > 10 µM | viability, T/C [7]: 110% | viability, T/C [8]: 95.2% | viability, T/C [9]: 92.1% | viability, T/C [10]: 105% | viability, T/C [11]: 96.4% | viability, T/C [12]: 97.5% | viability, T/C [13]: 91.4% | viability, T/C [14]: 107% | viability, T/C [15]: 87.8% | viability, T/C [16]: 88.3% | viability, T/C [17]: 85.8% | viability, T/C [18]: 73.8% | viability, T/C [19]: 72.9% | viability, T/C [20]: 90.7% | viability, T/C [21]: 78% | viability, T/C [22]: 79% | viability, T/C [23]: 68.7% | viability, T/C [24]: 71% | viability, T/C [25]: 56.1% | viability, T/C [26]: 66.6% | viability, T/C [27]: 64.3% | viability, T/C [28]: 67.1% | viability, T/C [29]: 60.1% | viability, T/C [30]: 58.1% | viability, T/C [31]: 40.8% | viability, T/C [32]: 44.4% | viability, T/C [33]: 38.6% | viability, T/C [34]: 42% | viability, T/C [35]: 50.8% | viability, T/C [36]: 45.4% | viability, T/C [37]: 70.9% | viability, T/C [38]: 57.8% | viability, T/C [39]: 65.9% | viability, T/C [40]: 61.5% | viability, T/C [41]: 49.6% | viability, T/C [42]: 61.6%
